Measurements taken from the supplement of paper PMC4862054.

How the values were obtained:
Test in all cases: normalised viability (% of control), CellTiter-Blue; higher = more viable cells (about 100 = DMSO control)
Details in all cases: incubation time: 72 h
[1] = tested on: CAL-85-1
Procedure, shortened: (§1)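 The reported quantity is normalised viability at a single listed concentration of the series. Compound in 5 µl medium was pre-dispensed into 384-well plates and 20 µl of breast cancer cell suspension was added for 72 h. A 2 h, 37 °C CellTiter-Blue step (2.5 µl) preceded fluorescence reading at 560/590 nm, and plates were normalised to vehicle (100) and a positive kill control (0).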

[2] = tested on: CAL-51
Procedure, shortened: as §1

[3] = tested on: HDQ-P1
Procedure, shortened: as §1

[4] = tested on: BT-474
Procedure, shortened: as §1

[5] = tested on: HCC1937
Procedure, shortened: as §1

[6] = tested on: HCC1599
Procedure, shortened: as §1

[7] = tested on: HCC1143
Procedure, shortened: as §1

[8] = tested on: SK-BR-3
Procedure, shortened: as §1

[9] = tested on: MDA-MB-436
Procedure, shortened: as §1

[10] = tested on: DU-4475
Procedure, shortened: as §1

[11] = tested on: MDA-MB-231
Procedure, shortened: as §1

[12] = tested on: CAL-51; remark: listed apart in the source
Procedure, shortened: as §1

[13] = tested on: BT-474; remark: listed apart in the source
Procedure, shortened: as §1

[14] = tested on: HCC1937; remark: listed apart in the source
Procedure, shortened: as §1

[15] = tested on: HCC1599; remark: listed apart in the source
Procedure, shortened: as §1

[16] = tested on: SK-BR-3; remark: listed apart in the source
Procedure, shortened: as §1

[17] = tested on: CAL-85-1; remark: listed apart in the source
Procedure, shortened: as §1

[18] = tested on: DU-4475; remark: listed apart in the source
Procedure, shortened: as §1

[19] = tested on: MDA-MB-231; remark: listed apart in the source
Procedure, shortened: as §1

[20] = tested on: CAL-148
Procedure, shortened: as §1

[21] = tested on: CAL-120
Procedure, shortened: as §1

[22] = tested on: BT-549
Procedure, shortened: as §1

[23] = tested on: CAL-51; remark: listed apart in the source
Procedure, shortened: as §1

[24] = tested on: MFM-223
Procedure, shortened: as §1

[25] = tested on: HDQ-P1; remark: listed apart in the source
Procedure, shortened: as §1

[26] = tested on: BT-474; remark: listed apart in the source
Procedure, shortened: as §1

[27] = tested on: HCC1937; remark: listed apart in the source
Procedure, shortened: as §1

[28] = tested on: MDA-MB-468
Procedure, shortened: as §1

[29] = tested on: HCC1599; remark: listed apart in the source
Procedure, shortened: as §1

[30] = tested on: MDA-MB-453
Procedure, shortened: as §1

[31] = tested on: HCC1143; remark: listed apart in the source
Procedure, shortened: as §1

[32] = tested on: SK-BR-3; remark: listed apart in the source
Procedure, shortened: as §1

[33] = tested on: MDA-MB-436; remark: listed apart in the source
Procedure, shortened: as §1

[34] = tested on: Hs578T
Procedure, shortened: as §1

Cc1cc2c(C(C)C)c(O)c(O)c(C=O)c2c(O)c1-c1c(C)cc2c(C(C)C)c(O)c(O)c(C=O)c2c1O [Gossypol]
normalised viability ([1]; 100 nM): 97.3%
normalised viability ([2]; 100 nM): 96.5%
normalised viability ([3]; 100 nM): 126%
normalised viability ([4]; 1000 nM): 113%
normalised viability ([5]; 1000 nM): 91.7%
normalised viability ([6]; 1000 nM): 97%
normalised viability ([7]; 1000 nM): 98.2%
normalised viability ([8]; 1000 nM): 92.9%
normalised viability ([9]; 1000 nM): 96.2%
normalised viability ([10]; 1000 nM): 113%
normalised viability ([11]; 100000 nM): 5.74%
normalised viability ([12]; 1000 nM): 92.1%
normalised viability ([13]; 100000 nM): 20.4%
normalised viability ([14]; 100000 nM): 6.06%
normalised viability ([15]; 100000 nM): 4.74%
normalised viability ([16]; 100000 nM): 1.49%
normalised viability ([17]; 300 nM): 87.3%
normalised viability ([18]; 300 nM): 93.9%
normalised viability ([19]; 10000 nM): 22.8%
normalised viability ([20]; 300 nM): 109%
normalised viability ([21]; 10000 nM): 37.5%
normalised viability ([22]; 10000 nM): 19.5%
normalised viability ([23]; 300 nM): 94.2%
normalised viability ([24]; 10000 nM): 23.3%
normalised viability ([25]; 300 nM): 141%
normalised viability ([26]; 10000 nM): 21.5%
normalised viability ([27]; 10000 nM): 23.3%
normalised viability ([28]; 10000 nM): 6.5%
normalised viability ([29]; 10000 nM): 47.2%
normalised viability ([30]; 300 nM): 103%
normalised viability ([31]; 10000 nM): 49%
normalised viability ([32]; 10000 nM): 28.6%
normalised viability ([33]; 10000 nM): 14.9%
normalised viability ([34]; 10000 nM): 6%

O=C(O)CCCc1ccc(N(CCCl)CCCl)cc1 [Chlorambucil]
normalised viability ([1]; 10 nM): 96%
normalised viability ([2]; 10 nM): 107%
normalised viability ([3]; 10 nM): 112%
normalised viability ([4]; 100 nM): 115%
normalised viability ([5]; 100 nM): 87.9%
normalised viability ([6]; 100 nM): 132%
normalised viability ([7]; 100 nM): 104%
normalised viability ([8]; 100 nM): 97.8%
normalised viability ([9]; 100 nM): 95.8%
normalised viability ([10]; 100 nM): 112%
normalised viability ([11]; 10000 nM): 88.4%
normalised viability ([12]; 100 nM): 107%
normalised viability ([13]; 10000 nM): 118%
normalised viability ([14]; 10000 nM): 52.8%
normalised viability ([15]; 10000 nM): 92.5%
normalised viability ([16]; 10000 nM): 80.4%
normalised viability ([17]; 30 nM): 92.7%
normalised viability ([18]; 30 nM): 92%
normalised viability ([19]; 1000 nM): 109%
normalised viability ([20]; 30 nM): 104%
normalised viability ([21]; 1000 nM): 98.5%
normalised viability ([22]; 1000 nM): 102%
normalised viability ([23]; 30 nM): 112%
normalised viability ([24]; 1000 nM): 106%
normalised viability ([25]; 30 nM): 94.1%
normalised viability ([26]; 1000 nM): 112%
normalised viability ([27]; 1000 nM): 68.7%
normalised viability ([28]; 1000 nM): 68.3%
normalised viability ([29]; 1000 nM): 97.1%
normalised viability ([30]; 30 nM): 94.3%
normalised viability ([31]; 1000 nM): 93.9%
normalised viability ([32]; 1000 nM): 105%
normalised viability ([33]; 1000 nM): 91.8%
normalised viability ([34]; 1000 nM): 102%
